Test results reported in patent publication US10646488B2 (Araxes Pharma LLC, priority 2016, dated 2020).

Target: T1, KRAS G12C 1-169, his-tagged protein, GDP-loaded (Homo sapiens, UniProt P01116, G12C)
T1 construct: KRAS G12C 1-169, his-tagged protein, GDP-loaded
Assay: Covalent binding (% modification) to KRAS G12C by mass spectrometry; note: test concentration or dose not given here

[1] = covalent binding to KRAS G12C after a three minute incubation period
[2] = covalent binding to KRAS G12C after a ten minute incubation period

Compound	Binding % [1]	Binding % [2]
C=CC(=O)N1C[C@H](C)N(c2nc(N3CC(N(C)C)C3)nc3c(F)c(-c4c(O)ccc5ccccc45)c(Cl)cc23)C[C@H]1C [Compound 211, 1-((2R,5S)-4-(6-chloro-2-(3-(dimethylamino)azetidin-1-yl)-8-fluoro-7-(2-hydroxynaphthalen-1-yl)quinazolin-4-yl)-2,5-dimethyl-piperazin-1-yl) prop-2-en-1-one]	++ (++ indicates binding activity from 50 to 90%)	
C=CC(=O)N1CCN(c2nc(N3CC(N(C)C)C3)nc3c(F)c(-c4c(C)ccc5cn[nH]c45)c(Cl)cc23)C[C@H]1C (atropisomer, axis not shown) [Compound 71, 1-((R)-4-((S)-6-chloro-2-(3-(dimethylamino)azetidin-1-yl)-8-fluoro-7-(6-methyl-1H-indazol-7-yl)quinazolin-4-yl)-2-methyl-piperazin-1-yl) prop-2-en-1-one]		+ (+ indicates binding activity up to 50%)
C=CC(=O)N1C[C@H](C)N(c2nc(N3CC(N(CC)CC)C3)nc3c(F)c(-c4c(C)ccc5cn[nH]c45)c(Cl)cc23)C[C@H]1C [Compound 129, 1-((2R,5S)-4-(6-chloro-2-(3-(diethylamino)azetidin-1-yl)-8-fluoro-7-(6-methyl-1H-indazol-7-yl)quinazolin-4-yl)-2,5-dimethyl-piperazin-1-yl) prop-2-en-1-one]	++ (++ indicates binding activity from 50 to 90%)	
C=CC(=O)N1CCN(c2nc(OCCN3CC(F)(F)C3)nc3c(F)c(-c4c(O)cccc4F)c(Cl)cc23)C[C@H]1C (atropisomer, axis not shown) [Compound 63, 1-((R)-4-((S)-6-chloro-2-(2-(3,3-difluoroazetidin-1-yl)ethoxy)-8-fluoro-7-(2-fluoro-6-hydroxyphenyl)quinazolin-4-yl)-2-methyl-piperazin-1-yl) prop-2-en-1-one]		+++ (+++ indicates binding activity greater than 90%)
1-((2R,5S)-4-(6- chloro-2-(2- (diethylamino) ethoxy)-8-fluoro- 7-((S)-6-methyl- 1H-indazol-7-yl) quinazolin-4-yl)- 2,5-dimethyl- piperazin-1-yl) prop-2-en-1-one [Compound 157]	+ (+ indicates binding activity greater than 0% and up to 50%)	
C=CC(=O)N1C[C@H](C)N(c2nc(N3CC(N(C)CC)C3)nc3c(F)c(-c4c(O)cccc4F)c(Cl)cc23)C[C@H]1C [Compound 102, 1-((2R,5S)-4-(6-chloro-2-(3-(ethyl(methyl)amino)azetidin-1-yl)-8-fluoro-7-(2-fluoro-6-hydroxyphenyl)quinazolin-4-yl)-2,5-dimethyl-piperazin-1-yl) prop-2-en-1-one]	++ (++ indicates binding activity from 50 to 90%)	
[2H]C([2H])([2H])N(C1CN(c2nc(N3C[C@@H](C)N(C(=O)C=C)C[C@@H]3C)c3cc(Cl)c(-c4c(O)cccc4F)c(F)c3n2)C1)C([2H])([2H])[2H] (atropisomer, axis not shown) [Compound 212, 1-((2R,5S)-4-(2-(3-(bis(triduetero-methyl)amino)azetidin-1-yl)-6-chloro-8-fluoro-7-((R)-2-fluoro-6-hydroxyphenyl)quinazolin-4-yl)-2,5-dimethyl-piperazin-1-yl) prop-2-en-1-one]	+ (+ indicates binding activity greater than 0% and up to 50%)	
C=CC(=O)N1C[C@H](C)N(c2nc(N3CC(N(C)C4CCC4)C3)nc3c(F)c(-c4c(O)cccc4F)c(Cl)cc23)C[C@H]1C (atropisomer, axis not shown) [Compound 139, 1-((2R,5S)-4-(6-chloro-2-(3-(cyclobutyl (methyl)amino)azetidin-1-yl)-8-fluoro-7-((R)-2-fluoro-6-hydroxyphenyl)quinazolin-4-yl)-2,5-dimethyl-piperazin-1-yl) prop-2-en-1-one]	+ (+ indicates binding activity greater than 0% and up to 50%)	
C=CC(=O)N1C[C@@H](C)N(c2nc(NC3CCN(C4CC4)CC3)nc3c(F)c(-c4c(C)ccc5[nH]ncc45)c(Cl)cc23)[C@@H](C)C1 [Compound 42, 1-((3S,5R)-4-(6-chloro-2-((1-cyclopropyl-piperidin-4-yl)amino)-8-fluoro-7-(5-methyl-1H-indazol-4-yl)quinazolin-4-yl)-3,5-dimethyl-piperazin-1-yl) prop-2-en-1-one]		++ (++ indicates binding activity from 50 to 90%)
C=CC(=O)N1C[C@H](C)N(c2nc(NC3CCN(C4CC4)CC3)nc3c(F)c(-c4c(C)ccc5cn[nH]c45)c(Cl)cc23)C[C@H]1C [Compound 145, 1-((2R,5S)-4-(6-chloro-2-((1-cyclopropyl-piperidin-4-yl)amino)-8-fluoro-7-(6-methyl-1H-indazol-7-yl)quinazolin-4-yl)-2,5-dimethyl-piperazin-1-yl) prop-2-en-1-one]	++ (++ indicates binding activity from 50 to 90%)	
C=CC(=O)N1C[C@H](C)N(c2nc(N3CC(NC)C3)nc3c(F)c(-c4c(C)ccc5cn[nH]c45)c(Cl)cc23)C[C@H]1C (atropisomer, axis not shown) [Compound 109, 1-((2R,5S)-4-(6-chloro-8-fluoro-7-((S)-6-methyl-1H-indazol-7-yl)-2-(3-(methylamino)azetidin-1-yl)quinazolin-4-yl)-2,5-dimethyl-piperazin-1-yl) prop-2-en-1-one]	+ (+ indicates binding activity greater than 0% and up to 50%)	
C=CC(=O)N1C[C@@H](C)N(c2nc(N3CC(N(C)C)C3)nc3c(F)c(-c4c(O)cccc4F)c(Cl)cc23)[C@@H](C)C1 [Compound 21, 1-((3S,5R)-4-(6-chloro-2-(3-(dimethylamino)azetidin-1-yl)-8-fluoro-7-(2-fluoro-6-hydroxyphenyl)quinazolin-4-yl)-3,5-dimethyl-piperazin-1-yl) prop-2-en-1-one]		++ (++ indicates binding activity from 50 to 90%)
C=CC(=O)N1C[C@H](C)N(c2nc(OCCN3CC(F)(F)C3)nc3c(F)c(-c4cc(O)cc5ccccc45)c(Cl)cc23)C[C@H]1C [Compound 169, 1-((2R,5S)-4-(6-chloro-2-(2-(3,3-difluoroazetidin-1-yl)ethoxy)-8-fluoro-7-(3-hydroxynaphthalen-1-yl)quinazolin-4-yl)-2,5-dimethyl-piperazin-1-yl) prop-2-en-1-one]	++ (++ indicates binding activity from 50 to 90%)	
C=CC(=O)N1CCN(c2nc(N3CC(N(C)C)C3)nc3c(F)c(-c4c(O)cccc4F)c(Cl)cc23)C[C@H]1C (atropisomer, axis not shown) [Compound 60, 1-((R)-4-((S)-6-chloro-2-(3-(dimethylamino)azetidin-1-yl)-8-fluoro-7-(2-fluoro-6-hydroxyphenyl)quinazolin-4-yl)-2-methyl-piperazin-1-yl) prop-2-en-1-one]		+++ (+++ indicates binding activity greater than 90%)
C=CC(=O)N1[C@H](C)CN(c2nc(N3CC(N(C)C)C3)nc3c(F)c(-c4c(O)cccc4F)c(Cl)cc23)C[C@@H]1C [Compound 26, 1-((2R,6S)-4-(6-chloro-2-(3-(dimethylamino)azetidin-1-yl)-8-fluoro-7-(2-fluoro-6-hydroxyphenyl)quinazolin-4-yl)-2,6-dimethyl-piperazin-1-yl) prop-2-en-1-one]		++ (++ indicates binding activity from 50 to 90%)
C=CC(=O)N1[C@H](C)CN(c2nc(OCCN(CC)CC)nc3c(F)c(-c4c(C)ccc5cn[nH]c45)c(Cl)cc23)C[C@@H]1C [Compound 23, 1-((2R,6S)-4-(6-chloro-2-(2-(diethylamino)ethoxy)-8-fluoro-7-(6-methyl-1H-indazol-7-yl)quinazolin-4-yl)-2,6-dimethyl-piperazin-1-yl) prop-2-en-1-one]		++ (++ indicates binding activity from 50 to 90%)
C=CC(=O)N1C[C@H](C)N(c2nc(OCCN(CC)CC)nc3c(F)c(-c4c(C)ccc5cn[nH]c45)c(Cl)cc23)C[C@H]1C [Compound 136, 1-((2R,5S)-4-(6-chloro-2-(2-(diethylamino)ethoxy)-8-fluoro-7-(6-methyl-1H-indazol-7-yl)quinazolin-4-yl)-2,5-dimethyl-piperazin-1-yl) prop-2-en-1-one]	+++ (+++ indicates binding activity greater than 90%)	
C=CC(=O)N1C[C@H](C)N(c2nc(OCCCN(C)C)nc3c(F)c(-c4c(C)ccc5cn[nH]c45)c(Cl)cc23)C[C@H]1C [Compound 191, 1-((2R,5S)-4-(6-chloro-2-(3-(dimethylamino)propoxy)-8-fluoro-7-(6-methyl-1H-indazol-7-yl)quinazolin-4-yl)-2,5-dimethyl-piperazin-1-yl) prop-2-en-1-one]	+++ (+++ indicates binding activity greater than 90%)	
C=CC(=O)N1C[C@H](C)N(c2nc(COCc3ncccc3F)nc3c(F)c(-c4c(C)ccc5[nH]ncc45)c(Cl)cc23)C[C@H]1C [Compound 142, 1-((2R,5S)-4-(6-chloro-8-fluoro-2-(((3-fluoro-pyridin-2-yl)methoxy)methyl)-7-(5-methyl-1H-indazol-4-yl)quinazolin-4-yl)-2,5-dimethyl-piperazin-1-yl) prop-2-en-1-one]	++ (++ indicates binding activity from 50 to 90%)	
C=CC(=O)N1C[C@H](C)N(c2nc(N3CC(NC)C3)nc3c(F)c(-c4c(C)ccc5cn[nH]c45)c(Cl)cc23)C[C@H]1C (atropisomer, axis not shown) [Compound 108, 1-((2R,5S)-4-(6-chloro-8-fluoro-7-((R)-6-methyl-1H-indazol-7-yl)-2-(3-(methylamino)azetidin-1-yl)quinazolin-4-yl)-2,5-dimethyl-piperazin-1-yl) prop-2-en-1-one]	+++ (+++ indicates binding activity greater than 90%)	
C=CC(=O)N1C[C@H](C)N(c2nc(N3CC(NC)C3)nc3c(F)c(-c4c(C)ccc5[nH]ncc45)c(Cl)cc23)C[C@H]1C [Compound 188, 1-((2R,5S)-4-(6-chloro-8-fluoro-7-(5-methyl-1H-indazol-4-yl)-2-(3-(methylamino)azetidin-1-yl)quinazolin-4-yl)-2,5-dimethyl-piperazin-1-yl) prop-2-en-1-one]	+ (+ indicates binding activity greater than 0% and up to 50%)	
